Test results: paper PMC7011873, “LC-MS–MS and GC-MS analyses of biologically active extracts and fractions from Tunisian Juniperus phoenice leaves” (Pharmaceutical Biology, 2016)

How the values were obtained:
[1] = DPPH radical-scavenging effect assay; conditions: 30 min incubation at room temperature, absorbance at 517 nm
Experimental: DPPH (1,1-diphenyl-2-picrylhydrazyl) radical-scavenging effect was evaluated following the procedure described in a previous study (Feki et al. [2005]). Various concentrations of extracts and fractions (5 μL) dissolved in methanol were added to 5 mL of a 0.004% methanol solution of DPPH. After a 30 min incubation period at room temperature, the absorbance was read against a blank at 517 nm. Inhibition of free radical, DPPH, in percent (I%) was calculated as follows: I% = (Ablank-Asample/Ablank)×100 where Ablank is the absorbance of the control reaction (containing all reagents except the studied sample) and Asample is the absorbance of the studied sample. Extract concentration providing 50% inhibition (IC50) was calculated from the graph plotted of inhibition percentage against extract concentration. The synthetic antioxidant reagents BHT and vitamin E were used as positive control and all tests were carried out in triplicate.

[2] = target: T1, porcine pancreatic α-amylase (PPA) (Sus scrofa, UniProt P00690); test: α-Amylase inhibition assay by CNPG3 method; format: biochemical
T1 construct: purchased Sigma-Aldrich (St. Louis, MO)
T1 sequence (P00690 16-511): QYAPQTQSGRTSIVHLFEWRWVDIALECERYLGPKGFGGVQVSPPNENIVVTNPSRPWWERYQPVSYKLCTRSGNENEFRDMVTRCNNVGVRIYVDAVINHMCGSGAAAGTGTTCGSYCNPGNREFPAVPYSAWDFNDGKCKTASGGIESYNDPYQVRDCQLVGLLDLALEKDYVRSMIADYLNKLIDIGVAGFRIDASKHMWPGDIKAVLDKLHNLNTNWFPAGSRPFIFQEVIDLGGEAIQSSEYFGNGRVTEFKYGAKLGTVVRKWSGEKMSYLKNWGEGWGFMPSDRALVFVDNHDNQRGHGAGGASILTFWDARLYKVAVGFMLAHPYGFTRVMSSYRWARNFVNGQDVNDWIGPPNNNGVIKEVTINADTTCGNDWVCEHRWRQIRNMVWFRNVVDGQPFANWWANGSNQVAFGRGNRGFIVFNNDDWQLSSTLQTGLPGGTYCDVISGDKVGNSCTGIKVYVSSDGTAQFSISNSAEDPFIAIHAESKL
Experimental: The studied sample was dissolved in DMSO to give concentrations of 50, 100, and 200 mg/mL. The enzyme solution was prepared by mixing α-amylase in 100 mL of 40 mM phosphate buffer, pH 6.9. The assays were measured by mixing 80 mL of the studied sample, 20 mL of α-amylase solution, and 1 mL of 2-chloro-4-nitrophenol-α-D-maltotrioside (CNPG3). The mixture was incubated at 37 °C for 5 min. The absorbance was measured at 405 nm spectrophotometrically (Jenway 6405 UV/Visible, Staffordshire, UK). […] Percentage inhibition was calculated by the following expression and all tests were carried out in triplicate: PI = [(AbsorbanceControl-AbsorbanceTest)/AbsorbanceControl] × 100

α-glucosidase = tested on: α-glucosidase; set-up: method as in Kim et al. ([2000]); conditions: ref Kim et al. ([2000]); cited from earlier work

| Structure (SMILES) | DPPH IC50 [1] | IC50 [2] | inhibitory activity against α-glucosidase (α-glucosidase) |
| --- | --- | --- | --- |
| O=c1cc(-c2ccc(O)c(-c3c(O)cc(O)c4c(=O)cc(-c5ccc(O)cc5)oc34)c2)oc2cc(O)cc(O)c12 [Amentoflavone] | 14.1 ± 0.4 µg/mL | 37.9 µM | relatively important inhibitory activity |
| Cc1cc(C(C)(C)C)c(O)c(C(C)(C)C)c1 [BHT, butylate hydroxytoluene, reference compound] | 18.1 ± 0.2 µg/mL |  |  |
